Measured values published in PMC4192606, “Agrobacterium Uses a Unique Ligand-Binding Mode for Trapping Opines and Acquiring A Competitive Advantage in the Niche Construction on Plant Host” (PLoS Pathogens, 2014).
“And” between values parts separate entries of the source, which are not always exact repeats. Equal values may be shown once.

Experiments:
NocT [1] = biological target: T1, NocT (Agrobacterium fabrum, UniProt P35120); test: KD measurement by isothermal titration calorimetry (ITC), wild-type NocT; assay type: binding, Agrobacterium tumefaciens C58
T1 construct: The X-ray structures of the mature free-liganded NocT; made in house; host or cells: E. coli Rosetta pLysS
T1 sequence (P35120 26-283): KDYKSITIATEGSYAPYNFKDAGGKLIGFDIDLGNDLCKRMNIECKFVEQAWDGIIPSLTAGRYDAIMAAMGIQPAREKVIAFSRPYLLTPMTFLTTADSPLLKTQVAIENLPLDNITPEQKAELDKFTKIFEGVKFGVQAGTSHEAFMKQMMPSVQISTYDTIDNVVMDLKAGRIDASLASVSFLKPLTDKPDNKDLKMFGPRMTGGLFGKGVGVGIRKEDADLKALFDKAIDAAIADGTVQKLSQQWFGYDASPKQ
Protocol: ITC experiments were performed with an ITC200 isothermal titration calorimeter from MicroCal Llc (Northampton, MA). The experiments were carried out at 20°C. Protein concentration in the microcalorimeter cell (0.2 ml) varied from 100 to 150 µM. Nineteen injections of 2 µl of the ligand solution concentration from 1.5 to 1.6 mM were performed at intervals of 180 s while stirring at 1000 rpm. The experimental data were fitted to theoretical titration curves with software supplied by MicroCal (ORIGIN). This software uses the relationship between the heat generated by each injection and ΔH (enthalpy change in Kcal.mol^−1), Ka (the association binding constant in M^−1), n (the number of binding sites), total protein concentration and free and total ligand concentrations.

NocT [2] = biological target: T1, NocT; test: KD measurement by intrinsic protein fluorescence titration, wild-type NocT; assay type: binding, Agrobacterium tumefaciens C58; settings: 25°C, 25 mM Tris-HCl pH 8.0, 150 mM NaCl, 5 µM protein, triplicates; for Kd: read-out: KD (fluorescence titration), NocT wt
Protocol: (§1) Ligand-NocT interaction was monitored by autofluorescence by exciting the protein at a wavelength of 295 nm and monitoring the quenching of fluorescence emission of tryptophan residues at 340 nm. All experiments were performed at 25°C in 25 mM Tris-HCl pH 8.0 and 150 mM NaCl with a fixed amount of proteins (5 µM) and increasing concentrations of ligand using a SpectraMax M5 microplate reader (Molecular Devices). […] Fluorescence measurements were done in triplicates. The data were analysed using Origin 7 software and fitted to the equation f = ΔFluorescencemax * abs(x)/(KD+abs(x)).

[3] = tested on: A. tumefaciens C58 nocT mutant; test: Growth assay on opine as sole carbon and nitrogen source, nocT mutant; assay type: cell-based, Agrobacterium tumefaciens C58; settings: opine as sole source of carbon and nitrogen at 3 mM, AB medium, OD600 after 24 hours
Excerpt: (§2) The A. tumefaciens C58 derivatives carrying pTi-accR::Gm and pTi::Gm (used as C58-control in plant assay) in which the genes accR (atu6138) and atu6147 were disrupted by inserting a gentamicin resistance cassette were already constructed. The A. tumefaciens C58 derivatives harbouring the Ti-plasmid pTi-nos::Km, pTi-ocd::Gm, pTi-nocT::Gm were obtained by insertion of a gentamicin (Gm) or kanamycin (Km) resistance cassette into the genes nos ( = atu6015), ocd ( = atu6016), and nocT ( = atu6027) as described previously.
(§3) A. tumefaciens was cultivated at 30°C in Agrobacterium broth (AB) minimal medium supplemented with ammonium chloride (1 g/L) and mannitol (2 g/L) except when an alternative source of carbon and nitrogen is indicated, or in Luria-Bertani modified medium (LBm; NaCl 5 g/L). In growth assay nopaline and pyronopaline were added as a sole carbon and nitrogen source at 3 mM (ca 1 g/L). The antibiotics gentamycin and kanamycin were added at 25 µg/mL and 50 µg/mL, respectively.

[4] = tested on: A. tumefaciens C58 ocd mutant; test: Growth assay on opine as sole carbon and nitrogen source, ocd mutant; assay type: cell-based, Agrobacterium tumefaciens C58; settings: opine as sole source of carbon and nitrogen at 3 mM, AB medium, OD600 after 24 hours
Excerpt: as §2, §3

NocT-M117S = biological target: T2, NocT-M117S (Agrobacterium fabrum, UniProt P35120, M117S); test: KD measurement by fluorescence titration, NocT-M117S mutant; assay type: binding, Agrobacterium tumefaciens C58
T2 construct: The X-ray structures of the mature free-liganded NocT; made in house; host or cells: E. coli Rosetta pLysS
T2 sequence (P35120 26-283 M117S): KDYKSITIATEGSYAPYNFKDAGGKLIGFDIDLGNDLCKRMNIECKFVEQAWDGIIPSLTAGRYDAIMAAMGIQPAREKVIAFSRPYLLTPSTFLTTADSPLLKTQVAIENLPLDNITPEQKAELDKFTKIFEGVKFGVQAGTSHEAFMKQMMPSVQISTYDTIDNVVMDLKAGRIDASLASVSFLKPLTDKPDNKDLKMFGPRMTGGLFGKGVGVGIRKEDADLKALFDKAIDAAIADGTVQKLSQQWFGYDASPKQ
Excerpt: (§4) Using 5′-[…] and 5′-[…] primers, nocT gene of A. tumefaciens C58 was amplified and then cloned into pET-9aSN1 expression vector (a gift from S. Chéruel, IBBMC, University Paris Sud, Orsay, France). The pET-9aSN1-nocT was used as template to generate directed mutations with QuikChange II XL directed mutagenesis kit (Stratagene). For mutations Met117 to Ser (M117S) and Asn (M117N), the synthetic forward primers 5′–[…] and 5′-[…] and their reverse complemented primers were designed. The nucleotide sequence of all alleles was confirmed by DNA-sequence analysis (GATC, France).
as §1

NocT-M117N = biological target: T3, NocT-M117N (Agrobacterium fabrum, UniProt P35120, M117N); test: KD measurement by fluorescence titration, NocT-M117N mutant; assay type: binding, Agrobacterium tumefaciens C58
T3 construct: The X-ray structures of the mature free-liganded NocT; made in house; host or cells: E. coli Rosetta pLysS
T3 sequence (P35120 26-283 M117N): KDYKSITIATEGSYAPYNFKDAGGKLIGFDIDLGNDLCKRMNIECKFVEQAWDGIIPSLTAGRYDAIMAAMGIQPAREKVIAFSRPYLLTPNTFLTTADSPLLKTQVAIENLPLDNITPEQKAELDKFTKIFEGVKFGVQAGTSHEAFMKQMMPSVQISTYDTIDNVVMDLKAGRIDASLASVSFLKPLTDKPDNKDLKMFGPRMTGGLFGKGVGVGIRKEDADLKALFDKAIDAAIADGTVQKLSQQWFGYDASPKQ
Excerpt: as §4, §1

[5] = 20°C, protein 100 to 150 µM, triplicates

Structure (SMILES) | KD (ITC), NocT wt (NocT [1]; [5]) | growth of nocT mutant [3] | growth of ocd mutant [4] | Kd (NocT [2]) | other results
N=C(N)NCCC[C@H](N)C(=O)O [arginine, reference compound] | no interaction | – | – | – | KD (fluorescence titration), NocT wt (NocT [2]): no interaction
NCCC[C@H](N)C(=O)O [ornithine, reference compound] | no interaction | – | – | – | –
N[C@@H](Cc1c[nH]cn1)C(=O)O [histidine, reference compound] | no interaction | – | – | – | –
N=C(N)NCCCC(NC(CCC(=O)O)C(=O)O)C(=O)O (centres unmarked) [nopaline] | – | could not grow | strongly impaired | 3700 nM | –
N=C(N)NCCCC(C(=O)O)N1C(=O)CCC1C(=O)O (centres unmarked) [pyronopaline] | – | could not grow | strongly impaired | 570 nM and 600 nM | Kd (NocT-M117S): 37800 ± 9000 nM; KD fold higher than that of the WT protein, NocT-M117S (NocT-M117S; mutant vs WT NocT): 76 fold; Kd (NocT-M117N): 39900 ± 7000 nM; KD fold higher than that of the WT protein, NocT-M117N (NocT-M117N; mutant vs WT NocT): 76 fold; TΔS of binding (ITC) (NocT [1]; 20°C): 12.6 kcal/mol; Kd (NocT [1]; 20°C, protein 100 to 150 µM, triplicates, read-out: KD (ITC), NocT wt): 580 ± 50 nM; enthalpy of binding (ITC) (NocT [1]; positive enthalpy): 2.1 kcal/mol
